Data taken from patent publication US9765075B2, “Substituted bridged urea analogs as sirtuin modulators” (GLAXOSMITHKLINE LLC, priority 2013, dated 2017).
Like-named read-outs stand apart in the source and are kept apart here.

Assays:
mini-hSIRT1 = assay: Inhibition of mini-hSIRT1 constructs compared with the full-length enzyme; assay type: biochemical, human
Description: Final concentrations of the PNC1/GDH coupling system components used were 20 units/mL bovine GDH (Sigma-Aldrich), 1 uM yeast PNC1, 3.4 mM α-ketoglutarate, and 220 μM NADH or NADPH. An extinction coefficient of 6.22 mM^−1 cm^−1 and a pathlength of 0.81 cm was used to convert the absorbance at 340 nm to product concentration for the 150 uL reactions used. […] Quenched reactions were diluted 5-fold with 1:1 acetonitrile:methanol and spun at 5,000×g for 10 minutes to precipitate protein before being analyzed with an Agilent RapidFire 200 High-Throughput Mass Spectrometry System (Agilent, Wakefield, Mass.) coupled to an ABSciex API 4000 mass spectrometer fitted with an electrospray ionization source. The p53-based Ac-p53(W5) (Ac-RHKK^AcW-NH2) and FOXO-3a 21-mer (Ac-[…]^Ac[…]-NH2) peptides were obtained from Biopeptide, Inc. Deacetylation assays used the Ac-p53(W5) substrate unless otherwise noted.
Substrate KM determinations were performed by varying one substrate concentration at a fixed, saturating concentration of the second substrate. SIRT1 activation and inhibition assays were run in reaction buffer with 0.05% BSA at 25° C. and analyzed using the OAcADPr assay. Enzyme and compound were pre-incubated for 20 minutes before addition of substrates. […]

SIRT1 = target: T1, SIRT1 (Homo sapiens, UniProt Q96EB6); assay: Trp mass spectrometry assay (SIRT1 activation); assay type: biochemical; conditions: for Emax: percent maximum fold activation of SIRT1, read-out: Tryp % Fold Act
T1 sequence (Q96EB6 1-747): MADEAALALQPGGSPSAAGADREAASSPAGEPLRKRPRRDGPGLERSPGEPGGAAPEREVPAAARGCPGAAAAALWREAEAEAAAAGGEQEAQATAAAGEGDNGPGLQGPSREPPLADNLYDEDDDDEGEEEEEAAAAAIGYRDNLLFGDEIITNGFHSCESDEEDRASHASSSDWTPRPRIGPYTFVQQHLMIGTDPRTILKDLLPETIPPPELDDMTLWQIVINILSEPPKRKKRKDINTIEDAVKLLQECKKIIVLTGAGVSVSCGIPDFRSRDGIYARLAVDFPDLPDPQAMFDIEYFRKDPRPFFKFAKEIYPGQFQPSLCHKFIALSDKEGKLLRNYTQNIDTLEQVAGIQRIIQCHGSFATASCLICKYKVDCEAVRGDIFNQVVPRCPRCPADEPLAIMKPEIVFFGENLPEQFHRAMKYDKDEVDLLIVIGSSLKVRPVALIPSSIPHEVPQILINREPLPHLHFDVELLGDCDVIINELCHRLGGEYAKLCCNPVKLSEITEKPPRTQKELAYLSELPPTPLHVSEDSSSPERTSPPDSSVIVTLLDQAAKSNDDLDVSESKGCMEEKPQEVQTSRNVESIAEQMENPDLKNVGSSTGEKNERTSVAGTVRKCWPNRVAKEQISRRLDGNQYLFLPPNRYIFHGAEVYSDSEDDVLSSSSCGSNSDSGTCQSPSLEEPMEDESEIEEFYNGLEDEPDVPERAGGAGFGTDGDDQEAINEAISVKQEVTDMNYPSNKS
Method in brief: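 Activation is expressed as EC1.5, the concentration raising activity 50% above DMSO control, and as maximum percent of control. Mass-spec readout was OAADPR or deacetylated Trp peptide after a formic-acid-quenched 25-min, 25 °C reaction: 10 nM bacterially expressed His-SIRT1, 0.5 μM acetyl-p53-derived peptide, 120 μM NAD+, pH 7.5 HEPES with […].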

[1] = Trp mass spectrometry assay, EC1.5 = concentration giving 150% activation of SIRT1
[2] = Trp mass spectrometry assay, EC1.5 = concentration of test compound that results in 150% activation of SIRT1
[3] = concentration of test compound that results in 150% activation of SIRT1, Trp peptide substrate

Compound	Emax (SIRT1; Trp mass spectrometry assay)	Tryp AVG EC1.5 (μM) (SIRT1; [3])	Emax (SIRT1; Trp peptide substrate)	also measured
NC(=O)c1cccnc1 [NAM, nicotinamide]				IC50 values, mini-hSIRT1 constructs versus full-length enzyme (mini-hSIRT1): comparable
CC(C)C(=O)c1cccc(NC(=O)N2c3nc(-c4cccc(C(F)(F)F)c4)ccc3N3CC[C@H]2C3)c1 [Example 740]	≥ 150%			Tryp AVG EC1.5 (μM) (SIRT1; [1]): A (EC1.5<1 μM)
Cn1ccc(NC(=O)N2c3nc(-c4cccc(C#N)c4)ccc3N3CC[C@H]2C3)n1 [Example 185]	≥ 150%			Tryp AVG EC1.5 (μM) (SIRT1; [2]): B (EC1.5 1-25 μM)
O=C(Nc1cccc(-c2ccccn2)c1)N1c2nc(-c3cccc(C(F)(F)F)c3)ccc2N2CC[C@H]1C2 [Example 667]	≥ 150%			Tryp AVG EC1.5 (μM) (SIRT1; [1]): A (EC1.5<1 μM)
Cc1noc(C)c1-c1ccc2c(n1)N(C(=O)Nc1ccccn1)[C@H]1CCN2C1 [Example 327]		C (EC1.5>25 μM)	≥ 150%	
O=C(Nc1cncc(F)c1)N1c2nc(N3CCCC(C(F)(F)F)C3)ccc2N2CC[C@H]1C2 (stereo partly shown) [Example 232]		B (EC1.5 1-25 μM)	≥ 150%	
COc1nccc(NC(=O)N2c3nc(-c4cccc(F)c4)ccc3N3CC[C@H]2C3)n1 [Example 60]	≥ 150%			
Cc1cnccc1NC(=O)N1c2nc(-c3cccc(F)c3)ccc2N2CC[C@H]1C2 [Example 62]	≥ 150%			
CN1CCCN(c2ccc3c(n2)N(C(=O)Nc2ccncn2)[C@H]2CCCN3C2)CC1 [Example 484]		C (EC1.5>25 μM)	< 150%	
N#Cc1cccc(-c2ccc3c(n2)N(C(=O)Nc2cccnc2)[C@@H]2CCCN3C2)c1 [Example 210]	≥ 150%			Tryp AVG EC1.5 (μM) (SIRT1; [2]): B (EC1.5 1-25 μM)
O=C(Nc1ccncn1)N1c2nc(N3CCCC(C(F)(F)F)C3)ccc2N2CCC[C@@H]1C2 (stereo partly shown) [Example 308]		C (EC1.5>25 μM)	≥ 150%	
N#Cc1cccc(-c2ccc3c(n2)N(C(=O)Nc2cncc(F)c2)[C@@H]2CCCN3C2)c1 [Example 228]		B (EC1.5 1-25 μM)	≥ 150%	
Cc1nc(C)c(-c2ccc3c(n2)N(C(=O)Nc2cccnc2)[C@H]2CCN3C2)s1 [Example 495]		B (EC1.5 1-25 μM)	≥ 150%	
O=C(Nc1ccncc1)N1c2nc(-c3cccc(C(F)(F)F)c3)ccc2N2CCC[C@H]1C2 [Example 821]	≥ 150%			Tryp AVG EC1.5 (μM) (SIRT1; [1]): A (EC1.5<1 μM)
O=C(Nc1cccc(CN2CCOCC2)c1)N1c2nc(-c3cccc(C(F)(F)F)c3)ccc2N2CC[C@H]1C2 [Example 629]	≥ 150%			Tryp AVG EC1.5 (μM) (SIRT1; [1]): A (EC1.5<1 μM)
O=C(NCc1ccccc1)N1c2nc(-c3cccc(C(F)(F)F)c3)ccc2N2CC[C@H]1C2 [Example 597]		B (EC1.5 1-25 μM)	≥ 150%	
COc1cc(NC(=O)N2c3nc(-c4ccc(C)nc4)ccc3N3CCC[C@H]2C3)ncn1 [Example 478]		B (EC1.5 1-25 μM)	≥ 150%	
CC(C)c1cccc(-c2ccc3c(n2)N(C(=O)Nc2ccccn2)[C@H]2CCN3C2)c1 [Example 330]		A (EC1.5<1 μM)	≥ 150%	
Cc1cc(-c2ccc3c(n2)N(C(=O)Nc2ccccn2)[C@H]2CCN3C2)ccn1 [Example 220]		A (EC1.5<1 μM)	≥ 150%	
COc1cc(NC(=O)N2c3nc(-c4cccc(C(F)(F)F)c4)ccc3N3CC[C@H]2C3)nc(OC)n1 [Example 22]	≥ 150%			
FC(F)(F)c1cccc(-c2ccc3c(n2)N(C(=S)Nc2cccc(-c4cnco4)c2)[C@H]2CCN3C2)c1 [Example 763]	≥ 150%			Tryp AVG EC1.5 (μM) (SIRT1; [1]): A (EC1.5<1 μM)
O=C(Nc1ccccn1)N1c2nc(-c3ccc4c(c3)OC(F)(F)O4)ccc2N2CC[C@H]1C2 [Example 262]		B (EC1.5 1-25 μM)	≥ 150%	
CC(=O)c1cc(F)c(NC(=O)N2c3nc(-c4cccc(C(F)(F)F)c4)ccc3N3CC[C@H]2C3)c(F)c1 [Example 78]	≥ 150%			
N=C(NCCN)c1ccc(NC(=O)N2c3nc(-c4cccc(C(F)(F)F)c4)ccc3N3CCC[C@H]2C3)cc1 [Example 792]	≥ 150%			Tryp AVG EC1.5 (μM) (SIRT1; [1]): A (EC1.5<1 μM)
